In ChEMBL document CHEMBL1135338, “Protease inhibitors: synthesis of matrix metalloproteinase and bacterial collagenase inhibitors incorporating 5-amino-2-mercapto-1,3,4-thiadiazole zinc binding functions” (Bioorg Med Chem Lett, 2002) one finds Ki data, which are given here for 33 compounds.

One assay deals with T1, Interstitial collagenase (Homo sapiens, UniProt P03956).
T1 sequence (P03956 whole entry): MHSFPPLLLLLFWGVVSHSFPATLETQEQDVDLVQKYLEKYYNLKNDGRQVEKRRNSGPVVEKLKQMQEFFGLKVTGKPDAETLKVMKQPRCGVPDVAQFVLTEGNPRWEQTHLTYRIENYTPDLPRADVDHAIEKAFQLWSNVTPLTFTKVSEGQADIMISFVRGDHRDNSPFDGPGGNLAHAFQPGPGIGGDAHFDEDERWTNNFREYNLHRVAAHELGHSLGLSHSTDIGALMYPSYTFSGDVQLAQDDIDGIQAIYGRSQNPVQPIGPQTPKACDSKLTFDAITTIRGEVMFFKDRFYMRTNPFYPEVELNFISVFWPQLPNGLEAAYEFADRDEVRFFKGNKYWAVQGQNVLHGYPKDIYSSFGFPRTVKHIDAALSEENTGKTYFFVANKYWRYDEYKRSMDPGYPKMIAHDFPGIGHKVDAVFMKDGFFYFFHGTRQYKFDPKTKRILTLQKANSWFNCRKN
The assay can be described thus: Inhibition of human matrix metalloprotease-1.

A further assay concerns the target Neutrophil collagenase (Homo sapiens, UniProt P22894). As to the kind of experiment: Inhibition of human matrix metalloprotease-8.
Assay [1] addresses Matrix metalloproteinase-9 (Homo sapiens, UniProt P14780). The assay can be described thus: Inhibition of human matrix metalloprotease-9.
The target in assay [2] is T2, 72 kDa type IV collagenase (Homo sapiens, UniProt P08253). As to the kind of experiment: Inhibition of human matrix metalloprotease-2.
The target in assay [3] is T2, 72 kDa type IV collagenase. The assay can be described thus: Inhibition of human Matrix metalloprotease-2.
The target of a further assay is Stromelysin-1 (Homo sapiens, UniProt P08254). The assay can be described thus: Inhibition of human Matrix metalloprotease-3.

The term Ki denotes a dissociation constant, usually derived from enzyme kinetics or from competition with a known ligand. High values mean lower affinity, low ones higher affinity.

Matrix metalloproteinase-9, sequence (P14780 whole entry): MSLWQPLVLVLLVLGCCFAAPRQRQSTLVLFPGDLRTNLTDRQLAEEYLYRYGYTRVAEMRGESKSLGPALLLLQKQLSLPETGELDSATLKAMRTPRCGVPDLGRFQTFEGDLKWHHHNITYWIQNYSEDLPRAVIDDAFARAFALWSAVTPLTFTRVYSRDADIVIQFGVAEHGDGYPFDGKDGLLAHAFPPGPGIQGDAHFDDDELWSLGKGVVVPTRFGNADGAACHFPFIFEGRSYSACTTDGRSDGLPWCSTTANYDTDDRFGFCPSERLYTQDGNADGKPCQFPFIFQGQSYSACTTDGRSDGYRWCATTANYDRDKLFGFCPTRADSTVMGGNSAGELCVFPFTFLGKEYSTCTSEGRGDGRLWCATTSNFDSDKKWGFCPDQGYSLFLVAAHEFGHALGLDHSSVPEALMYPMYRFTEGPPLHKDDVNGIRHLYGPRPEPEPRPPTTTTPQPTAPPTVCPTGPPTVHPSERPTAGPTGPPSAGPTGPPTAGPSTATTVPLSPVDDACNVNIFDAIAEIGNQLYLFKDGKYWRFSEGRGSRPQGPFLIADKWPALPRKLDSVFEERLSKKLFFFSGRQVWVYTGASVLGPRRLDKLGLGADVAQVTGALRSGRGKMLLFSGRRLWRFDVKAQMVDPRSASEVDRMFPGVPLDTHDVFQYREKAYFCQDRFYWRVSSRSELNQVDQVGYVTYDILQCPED
Neutrophil collagenase, sequence (P22894 whole entry): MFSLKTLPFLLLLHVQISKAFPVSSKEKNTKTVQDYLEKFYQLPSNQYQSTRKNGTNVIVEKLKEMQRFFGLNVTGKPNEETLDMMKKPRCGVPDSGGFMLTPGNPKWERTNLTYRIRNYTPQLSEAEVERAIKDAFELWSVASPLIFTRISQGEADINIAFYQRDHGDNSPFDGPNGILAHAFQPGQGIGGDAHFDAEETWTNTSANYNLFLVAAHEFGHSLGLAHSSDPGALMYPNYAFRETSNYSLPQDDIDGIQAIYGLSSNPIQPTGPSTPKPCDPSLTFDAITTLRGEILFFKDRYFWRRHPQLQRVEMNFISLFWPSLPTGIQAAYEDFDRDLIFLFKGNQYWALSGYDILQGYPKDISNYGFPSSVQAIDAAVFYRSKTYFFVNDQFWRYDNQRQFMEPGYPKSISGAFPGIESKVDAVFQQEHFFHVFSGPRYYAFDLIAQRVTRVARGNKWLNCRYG
T2 sequence (P08253 whole entry): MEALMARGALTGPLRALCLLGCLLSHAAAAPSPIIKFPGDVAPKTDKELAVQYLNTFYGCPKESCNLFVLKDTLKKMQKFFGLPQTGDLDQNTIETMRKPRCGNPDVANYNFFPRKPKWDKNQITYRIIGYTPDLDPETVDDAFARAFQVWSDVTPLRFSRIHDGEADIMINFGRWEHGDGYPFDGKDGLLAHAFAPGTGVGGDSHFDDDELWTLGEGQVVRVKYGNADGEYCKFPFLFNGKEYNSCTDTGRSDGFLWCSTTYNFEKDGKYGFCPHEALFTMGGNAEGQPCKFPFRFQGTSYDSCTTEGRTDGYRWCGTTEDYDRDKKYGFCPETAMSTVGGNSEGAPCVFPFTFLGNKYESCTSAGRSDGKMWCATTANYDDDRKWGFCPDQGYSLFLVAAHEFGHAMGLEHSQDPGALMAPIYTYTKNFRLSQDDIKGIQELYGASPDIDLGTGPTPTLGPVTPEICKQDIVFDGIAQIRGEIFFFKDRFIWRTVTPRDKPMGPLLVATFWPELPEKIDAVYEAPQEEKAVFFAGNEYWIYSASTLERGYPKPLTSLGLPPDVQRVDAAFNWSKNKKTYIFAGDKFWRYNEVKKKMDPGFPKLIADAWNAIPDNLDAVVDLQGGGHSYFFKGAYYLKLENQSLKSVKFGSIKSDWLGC
Stromelysin-1, sequence (P08254 whole entry): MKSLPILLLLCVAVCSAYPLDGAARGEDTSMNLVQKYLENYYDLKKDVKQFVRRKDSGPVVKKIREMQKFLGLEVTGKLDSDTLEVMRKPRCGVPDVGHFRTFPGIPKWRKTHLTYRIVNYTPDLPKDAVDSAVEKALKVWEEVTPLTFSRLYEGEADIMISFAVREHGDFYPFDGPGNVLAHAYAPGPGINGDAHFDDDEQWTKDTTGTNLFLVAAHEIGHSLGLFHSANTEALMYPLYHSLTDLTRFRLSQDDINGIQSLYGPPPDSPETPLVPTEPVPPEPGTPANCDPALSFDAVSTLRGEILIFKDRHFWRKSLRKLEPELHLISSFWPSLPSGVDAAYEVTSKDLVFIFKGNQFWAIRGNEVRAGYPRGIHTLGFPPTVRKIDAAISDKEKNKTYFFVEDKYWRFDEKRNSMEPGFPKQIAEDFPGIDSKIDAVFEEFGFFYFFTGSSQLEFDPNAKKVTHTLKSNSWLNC

With `COc1ccc(S(=O)(=O)N[C@@H](Cc2ccccc2)C(=O)N[C@@H](C)C(=O)Nc2n[nH]c(=S)s2)cc1`, the Ki at Interstitial collagenase was 28 µM; at Neutrophil collagenase it was 20 µM; in assay [1], 21 µM; in assay [2] it was 18 µM.
For the compound `C[C@H](NC(=O)[C@H](Cc1ccccc1)NS(=O)(=O)c1c(F)c(F)c(F)c(F)c1F)C(=O)Nc1n[nH]c(=S)s1`, the figures for the Ki (at Neutrophil collagenase; in assay [1]; in assay [2]) were 1 µM, 2 µM and 6 µM, respectively.
Regarding `Cc1ccc(S(=O)(=O)NC(=O)N[C@@H](Cc2ccccc2)C(=O)N[C@@H](C)C(=O)Nc2n[nH]c(=S)s2)cc1`, the Ki at Interstitial collagenase worked out at 15 µM; at Neutrophil collagenase, 5 µM; in assay [1], 5 µM; in assay [2] it was 7 µM.
Regarding `Cc1cc(C)c(S(=O)(=O)N[C@@H](Cc2ccccc2)C(=O)N[C@@H](C)C(=O)Nc2n[nH]c(=S)s2)c(C)c1`, the inhibitory constant (Ki) is 33 µM at Interstitial collagenase, 25 µM at Neutrophil collagenase, 29 µM in assay [1] and 24 µM in assay [2].
Turning to `C[C@H](NC(=O)[C@H](Cc1ccccc1)NS(=O)(=O)c1ccc(Cl)cc1)C(=O)Nc1n[nH]c(=S)s1`, the values for the Ki (at Interstitial collagenase; in assay [1]; in assay [2]) were 20 µM, 15 µM and 16 µM, respectively.
As to `C[C@H](NC(=O)[C@H](Cc1ccccc1)NS(=O)(=O)c1cccc2c(N(C)C)cccc12)C(=O)Nc1n[nH]c(=S)s1`, the Ki came out at 87 µM at Interstitial collagenase, 48 µM on Neutrophil collagenase, 50 µM in assay [1] and 40 µM in assay [2].
As for `C[C@H](NC(=O)[C@H](Cc1ccccc1)NS(=O)(=O)c1cccc(C(F)(F)F)c1)C(=O)Nc1n[nH]c(=S)s1`, the Ki at Interstitial collagenase stood at 13 µM; in assay [1] it was 5 µM; in assay [2] it was 11 µM.
Consider `CC(=O)Nc1ccc(S(=O)(=O)N[C@@H](Cc2ccccc2)C(=O)N[C@@H](C)C(=O)Nc2n[nH]c(=S)s2)cc1`, for which the Ki on Interstitial collagenase is 14 µM; in assay [1], 10 µM; in assay [2], 8 µM.
For `CC(C)C(NS(=O)(=O)c1ccc(-c2ccc(Cl)cc2)cc1)C(=O)O` (stereo not drawn), in assay [3], the Ki worked out at 2 µM.
In the case of `C[C@H](NC(=O)[C@H](Cc1ccccc1)NS(=O)(=O)c1cccc2ccccc12)C(=O)Nc1n[nH]c(=S)s1`, the results for the Ki (on Interstitial collagenase; in assay [1]; in assay [2]) were 80 µM, 44 µM and 36 µM, respectively.
Regarding `C[C@H](NC(=O)[C@H](Cc1ccccc1)NS(=O)(=O)c1ccc([N+](=O)[O-])cc1)C(=O)Nc1n[nH]c(=S)s1`, the Ki at Interstitial collagenase was determined as 15 µM; on Neutrophil collagenase it was 10 µM; in assay [1], 18 µM; in assay [2], 12 µM.
For `C[C@H](NC(=O)[C@H](Cc1ccccc1)NC(=O)NS(=O)(=O)c1ccc(F)cc1)C(=O)Nc1n[nH]c(=S)s1` the same measures were 12 µM, 0.1 µM, 0.3 µM and 2 µM.
As for `C[C@H](NC(=O)[C@H](Cc1ccccc1)NC(=O)NS(=O)(=O)c1ccc(Cl)cc1)C(=O)Nc1n[nH]c(=S)s1`, the Ki on Interstitial collagenase was 10 µM; on Neutrophil collagenase, 0.2 µM; in assay [1], 0.4 µM; in assay [2], 4 µM.
Take `C[C@H](NC(=O)[C@H](Cc1ccccc1)NS(=O)(=O)c1ccc(Br)cc1)C(=O)Nc1n[nH]c(=S)s1`: the Ki at Interstitial collagenase came to 24 µM; in assay [1], 21 µM; in assay [2] it was 15 µM.
`O=C(O)C(Cc1ccccc1)NS(=O)(=O)c1ccc(-c2ccccc2)cc1` (stereo not drawn) yielded a Ki in assay [3] of 2 µM.
Consider `C[C@H](NC(=O)[C@H](Cc1ccccc1)NC(=O)NS(=O)(=O)c1ccccc1)C(=O)Nc1n[nH]c(=S)s1`, for which the Ki on Interstitial collagenase was found to be 19 µM; in assay [1] it was 4 µM; in assay [2] it was 5 µM.
Turning to `C[C@H](NC(=O)[C@H](Cc1ccccc1)NS(=O)(=O)c1cccc2cccnc12)C(=O)Nc1n[nH]c(=S)s1`, the Ki was determined as 74 µM at Interstitial collagenase, 39 µM on Neutrophil collagenase, 45 µM in assay [1] and 41 µM in assay [2].
`O=C(O)C(Cc1ccccc1)NS(=O)(=O)c1ccc(-c2ccc(Br)cc2)cc1` (stereo not drawn): the Ki in assay [3] turned out to be 2 µM.
In the case of `C[C@H](NC(=O)[C@H](Cc1ccccc1)NS(=O)(=O)c1cccs1)C(=O)Nc1n[nH]c(=S)s1`, the Ki at Interstitial collagenase amounted to 14 µM; in assay [1], 10 µM; in assay [2], 13 µM.
Turning to `Cc1ccccc1S(=O)(=O)NC(=O)N[C@@H](Cc1ccccc1)C(=O)N[C@@H](C)C(=O)Nc1n[nH]c(=S)s1`, the inhibition constant Ki on Interstitial collagenase was determined as 19 µM; on Neutrophil collagenase, 6 µM; in assay [1], 7 µM; in assay [2] it was 8 µM.
With `C[C@H](NC(=O)[C@H](Cc1ccccc1)NS(=O)(=O)c1ccc2ccccc2c1)C(=O)Nc1n[nH]c(=S)s1`, the Ki came out at 72 µM at Interstitial collagenase, 45 µM at Neutrophil collagenase, 53 µM in assay [1] and 33 µM in assay [2].
Compound `O=C(O)C(Cc1ccccc1)NS(=O)(=O)c1ccc(-c2ccc(Cl)cc2)cc1` (stereo not drawn) showed a Ki in assay [3] of 2 µM.
With `C[C@H](NC(=O)[C@H](Cc1ccccc1)NS(=O)(=O)c1ccc(I)cc1)C(=O)Nc1n[nH]c(=S)s1`, the Ki on Interstitial collagenase turned out to be 21 µM; in assay [1] it was 18 µM; in assay [2], 17 µM.
For `C[C@H](NC(=O)[C@H](Cc1ccccc1)NS(=O)(=O)c1ccc(F)cc1)C(=O)Nc1n[nH]c(=S)s1` the same measures were 19 µM, 14 µM and 17 µM.
With `C[C@H](NC(=O)[C@H](Cc1ccccc1)NS(=O)(=O)c1ccccc1[N+](=O)[O-])C(=O)Nc1n[nH]c(=S)s1`, the Ki on Interstitial collagenase was 29 µM; at Neutrophil collagenase, 17 µM; in assay [1] it was 14 µM; in assay [2] it was 15 µM.
In the same order, the values of `Cc1ccc(S(=O)(=O)N[C@@H](Cc2ccccc2)C(=O)N[C@@H](C)C(=O)Nc2n[nH]c(=S)s2)cc1` are 30 µM, 23 µM, 20 µM and 20 µM.
With `C[C@H](NC(=O)[C@H](Cc1ccccc1)NS(=O)(=O)c1cc(Cl)ccc1Cl)C(=O)Nc1n[nH]c(=S)s1`, the Ki stood at 19 µM at Interstitial collagenase, 9 µM at Neutrophil collagenase, 17 µM in assay [1] and 10 µM in assay [2].
Regarding `C[C@H](NC(=O)[C@H](Cc1ccccc1)NS(=O)(=O)CC12CCC(CC1=O)C2(C)C)C(=O)Nc1n[nH]c(=S)s1` (stereo partly drawn), the Ki was determined as 69 µM on Interstitial collagenase, 34 µM on Neutrophil collagenase, 40 µM in assay [1] and 35 µM in assay [2].
In the same order, the values of `C[C@H](NC(=O)[C@H](Cc1ccccc1)NS(=O)(=O)c1cccc([N+](=O)[O-])c1)C(=O)Nc1n[nH]c(=S)s1` are 18 µM, 13 µM, 18 µM and 12 µM.
For the compound `CC(C)C(NS(=O)(=O)c1ccc(-c2ccccc2)cc1)C(=O)O` (stereo not drawn), the affinity in assay [3], expressed as Ki, was 2 µM.
Take `C[C@H](NC(=O)[C@H](Cc1ccccc1)NS(=O)(=O)Cc1ccccc1)C(=O)Nc1n[nH]c(=S)s1`: the figures for the Ki (at Interstitial collagenase; in assay [1]; in assay [2]) were 24 µM, 16 µM and 16 µM, respectively.
In turn, `O=C(O)[C@H](Cc1c[nH]c2ccccc12)NS(=O)(=O)c1ccc(N2CCC(c3ccccc3)CC2)cc1` had a Ki on Stromelysin-1 of 0.019 µM.
`C[C@H](NC(=O)[C@H](Cc1ccccc1)NS(=O)(=O)c1ccccc1)C(=O)Nc1n[nH]c(=S)s1`: the Ki was determined as 22 µM on Interstitial collagenase, 24 µM on Neutrophil collagenase, 15 µM in assay [1] and 18 µM in assay [2].
